One test addresses T1, human 15-PGDH (Homo sapiens, UniProt P15428).
T1 construct: purchased R&D System 5660-DH
T1 sequence (P15428 1-266): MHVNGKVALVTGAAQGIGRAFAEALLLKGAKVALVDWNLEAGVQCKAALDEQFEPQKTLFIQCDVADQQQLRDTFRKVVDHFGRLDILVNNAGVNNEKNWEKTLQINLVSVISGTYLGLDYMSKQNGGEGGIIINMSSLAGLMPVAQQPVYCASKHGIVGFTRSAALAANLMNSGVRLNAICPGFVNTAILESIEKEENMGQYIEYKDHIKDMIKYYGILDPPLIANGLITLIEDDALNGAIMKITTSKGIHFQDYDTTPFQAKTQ
Nature of the test: Evaluation of 15-PGDH inhibitory activity (fluorescence enzyme assay, NAD+/PGE2). In kind it is biochemical. As to conditions: human 15-PGDH enzyme, fluorescence Vmax. On the procedure:
15-PGDH inhibition activity of Example compounds was measured as follows. 6.7 ng of human 15-PGDH (R&D System# 5660-DH) enzyme (10 µL) was added to a black 96 well plate, 60 µL of buffer (50 mM Tris-HCl, pH 7.5, 0.01% Tween 20) was added, and 10 µL of 200 µM β-Nicotinamide adenine dinucleotide sodium salt (Sigma, Cat# N0632-5G) was added. 10 µL of (10x) compound solution in DMSO was added and reacted for 10 minutes at room temperature.

A further test relates to A549 cells. Description: Measurement of PGE2-increasing activity in A549 cells (IL-1β stimulated, PGE2 quantified in supernatant). Type of test: cell-based. As to conditions: Homo sapiens, 24 h; concentration of 1 µM of each compound; IL-1β treated A549 cells; read-out: Increased PGE2 production in A549 cells. On the procedure:
A549 cells were prepared at a cell number of 1 x 10^5/mL in F12K medium containing 10% FBS (Fetal Bovine Serum), and 2 x 10^4/200 µL was added to each well of a 96-well cell culture plate, and then cultured in an incubator with 5% CO2 at 37 °C for 24 hours. After the culture was complete and all F12K medium was removed, all wells were washed once with 100 µL of PBS, and treated with 160 µL of serum-free F12K medium. Then, 20 µL of IL-1β diluted 10-fold to a concentration of 1 ng/mL in serum-free F12K medium was treated to wells to be treated with IL-1β, and 20 µL of serum-free F12K medium was treated to wells not treated with IL-1β. For the wells to be treated with the compound, 20 µL of the compound dissolved in 100% DMSO was diluted to a concentration 10 times of the desired compound concentration in serum-free F12K medium so that the final DMSO concentration treated to the cells was 0.1%, and for the wells not to be treated with the compound, 20 µL of DMSO diluted in serum-free F12K medium so that the final DMSO concentration treated to the cells was 0.1% was treated. In order to confirm the increase or decrease in the secretion amount of PGE2 in the supernatant collected after culturing for 24 hours in an incubator with 5% CO2 at 37 °C, PGE2 was quantified using the Prostaglandin E2 Parameter (SKGE004B).

Each structure is given as a SMILES string. Where only a bound is given, the exact number is not on record here.

A word on the IC50: it is the concentration that inhibits the measured activity by half. Low values mean greater potency in that assay, high ones weaker potency in that assay.

In turn, `CC(C)NC(=O)c1cccc(-c2cccc3c(C(=O)N4CCCCC4)cnn23)c1` [Example 28, N-isopropyl-3-(3-(piperidine-1-carbonyl)pyrazolo[1,5-a]pyridin-7-yl)benzamide] yielded an IC50 on human 15-PGDH not above 100 nM. Also, in the test with A549 cells, the fold induction at 1 µM was more than 1.5.

`O=C(c1cnn2c(-c3ccc(N4CCOC4=O)nc3)cccc12)N1CCCC(F)(F)C1` [Example 384, 3-(5-(3-(3,3-difluoropiperidine-1-carbonyl)pyrazolo[1,5-a]pyridin-7-yl)pyridin-2-yl)oxazolidin-2-one] came in with an IC50 at human 15-PGDH not above 100 nM. Moreover, the fold induction at 1 µM in the test on A549 cells is more than 1.5.

With `CCC1CCCN(C(=O)c2cnn3c(-c4ccc(N5CCOC5=O)nc4)cccc23)C1` (stereo not drawn) [Example 354, 3-(5-(3-(3-ethylpiperidine-1-carbonyl)pyrazolo[1,5-a]pyridin-7-yl)pyridin-2-yl)oxazolidin-2-one], the IC50 at human 15-PGDH was not above 100 nM. The fold induction at 1 µM with A549 cells was more than 1.5.

Take `CN(C)CC(=O)Nc1ccc(-c2cccc3c(C(=O)N4CCCCC4)cnn23)cn1` [Example 104, 2-(dimethylamino)-N-(5-(3-(piperidine-1-carbonyl)pyrazolo[1,5-a]pyridin-7-yl)pyridin-2-yl)acetamide]: on human 15-PGDH, the IC50 is not above 100 nM. Also, the fold induction at 1 µM in the test on A549 cells was more than 1.5.

In turn, `CC(C)N1Cc2ccc(-c3cccc4c(C(=O)N5CCCCC5)cnn34)cc2C1=O` [Example 142, 2-isopropyl-6-(3-(piperidine-1-carbonyl)pyrazolo[1,5-a]pyridin-7-yl)isoindolin-1-one] returned an IC50 against human 15-PGDH not above 100 nM. Also, the fold induction at 1 µM with A549 cells is more than 1.5.

`O=C(c1cnn2c(-c3cnn(Cc4ncon4)c3)cccc12)N1CCCCC1` [Example 395, (7-(1-((1,2,4-oxadiazol-3-yl)methyl)-1H-pyrazol-4-yl)pyrazolo[1,5-a]pyridin-3-yl)(piperidin-1-yl)methanone] returned an IC50 at human 15-PGDH not above 100 nM. Further, the fold induction at 1 µM with A549 cells was more than 1.5.

Consider `Cn1nc(N)c2ccc(-c3cccc4c(C(=O)N5CCCCC5)cnn34)cc21` [Example 310, [7-(3-amino-1-methyl-indazol-6-yl)pyrazolo[1,5-a]pyridin-3-yl]-(1-piperidyl)methanone], for which, at human 15-PGDH, the IC50 was not above 100 nM. In addition, in the test with A549 cells, the fold induction at 1 µM is more than 1.5.

Compound `O=C(c1cnn2c(-c3cncc([N+](=O)[O-])c3)cccc12)N1CCCCC1` [Example 318, (7-(5-nitropyridin-3-yl)pyrazolo[1,5-a]pyridin-3-yl)(piperidin-1-yl)methanone] returned an IC50 against human 15-PGDH not above 100 nM. In addition, the fold induction at 1 µM with A549 cells was more than 1.5.

With `COCCC(=O)Nc1cncc(-c2cccc3c(C(=O)N4CCCCC4)cnn23)c1` [Example 197], the IC50 against human 15-PGDH was not above 100 nM. Also, the fold induction at 1 µM in the test on A549 cells was more than 1.5.

For the compound `Nc1ccc(-c2cccc3c(C(=O)N4CCCCC4)cnn23)cn1` [Example 17, (7-(6-aminopyridin-3-yl)pyrazolo[1,5-a]pyridin-3-yl)(piperidin-1-yl)methanone], the IC50 against human 15-PGDH was not above 100 nM. Moreover, the fold induction at 1 µM in the test with A549 cells was less than 1.5.

`O=C(c1cnn2c(-c3cncc(F)c3)cccc12)N1CCCCC1` [Example 284, (7-(5-fluoropyridin-3-yl)pyrazolo[1,5-a]pyridin-3-yl)(piperidin-1-yl)methanone]: the IC50 against human 15-PGDH was not above 100 nM. Moreover, the fold induction at 1 µM in the test with A549 cells is more than 1.5.

Take `O=C(c1cnn2c(-c3ccc(N4CCOC4=O)nc3)cccc12)N1CCCCC1` [Example 316, 3-(5-(3-(piperidine-1-carbonyl)pyrazolo[1,5-a]pyridin-7-yl)pyridin-2-yl)oxazolidin-2-one]: the IC50 on human 15-PGDH is not above 100 nM. The fold induction at 1 µM in the test on A549 cells is more than 1.5.

In turn, `Cc1nc(-c2cncc(-c3cccc4c(C(=O)N5CCCCC5)cnn34)c2)no1` [Example 319, (7-(5-(5-methyl-1,2,4-oxadiazol-3-yl)pyridin-3-yl)pyrazolo[1,5-a]pyridin-3-yl)(piperidin-1-yl)methanone] came in with an IC50 on human 15-PGDH not above 100 nM. The fold induction at 1 µM in the test on A549 cells was more than 1.5.

The compound `CN1CCc2ncc(-c3cccc4c(C(=O)N5CCCCC5)cnn34)cc2C1=O` [Example 199, 6-methyl-3-(3-(piperidine-1-carbonyl)pyrazolo[1,5-a]pyridin-7-yl)-7,8-dihydro-1,6-naphthyridin-5(6H)-one] gave an IC50 on human 15-PGDH not above 100 nM. For the same compound, the fold induction at 1 µM in the test on A549 cells was more than 1.5.

`O=C(c1cnn2c(-c3ccc(Cl)cc3)cccc12)N1CCCCC1` [Example 12, (7-(4-chlorophenyl)pyrazolo[1,5-a]pyridin-3-yl)(piperidin-1-yl)methanone] gave an IC50 at human 15-PGDH not above 100 nM. In addition, in the test on A549 cells, the fold induction at 1 µM was more than 1.5.

On to `O=C(c1cnn2c(-c3ccc(N4CCOCC4)nc3)cccc12)N1CCCCC1` [Example 108, (7-(6-morpholinopyridin-3-yl)pyrazolo[1,5-a]pyridin-3-yl)(piperidin-1-yl)methanone], for which the IC50 against human 15-PGDH is not above 100 nM. Besides, in the test on A549 cells, the fold induction at 1 µM is more than 1.5.

Regarding `O=C(c1ccc(-c2cccc3c(C(=O)N4CCCCC4)cnn23)cc1)N1CCC1` [Example 61, azetidin-1-yl(4-(3-(piperidine-1-carbonyl)pyrazolo[1,5-a]pyridin-7-yl)phenyl)methanone], the IC50 against human 15-PGDH was not above 100 nM. Further, the fold induction at 1 µM with A549 cells is more than 1.5.

In the case of `N#CCNC(=O)c1ccc(-c2cccc3c(C(=O)N4CCCCC4)cnn23)cc1` [Example 70, N-(cyanomethyl)-4-(3-(piperidine-1-carbonyl)pyrazolo[1,5-a]pyridin-7-yl)benzamide], the IC50 at human 15-PGDH was not above 100 nM. In addition, in the test with A549 cells, the fold induction at 1 µM was more than 1.5.

Compound `Nc1nn2c(-c3ccc4c(c3)C(=O)NCC4)cccc2c1C(=O)N1CCCCC1` [Example 159, 7-(2-amino-3-(piperidine-1-carbonyl)pyrazolo[1,5-a]pyridin-7-yl)-3,4-dihydroisoquinolin-1(2H)-one] yielded an IC50 at human 15-PGDH of 100 to 1000 nM. In the test with A549 cells, the fold induction at 1 µM is more than 1.5.

Turning to `O=C(c1cnn2c(-c3ccc(F)c(-c4noc(=O)[nH]4)c3)cccc12)N1CCCCC1` [Example 275, 3-[2-fluoro-5-[3-(piperidine-1-carbonyl)pyrazolo[1,5-a]pyridin-7-yl]phenyl]-4H-1,2,4-oxadiazol-5-one], the IC50 against human 15-PGDH was not above 100 nM. Moreover, the fold induction at 1 µM in the test on A549 cells was more than 1.5.

For `O=C(c1cnn2c(-c3ccccc3Cl)cccc12)N1CCCCC1` [Example 264, (7-(2-chlorophenyl)pyrazolo[1,5-a]pyridin-3-yl)(piperidin-1-yl)methanone], the IC50 at human 15-PGDH was not above 100 nM. The fold induction at 1 µM in the test on A549 cells was more than 1.5.

On to `O=C(Nc1ccc(-c2cccc3c(C(=O)N4CCCCC4)cnn23)cc1)C1CCCCC1` [Example 102, N-(4-(3-(piperidine-1-carbonyl)pyrazolo[1,5-a]pyridin-7-yl)phenyl)cyclohexanecarboxamide], for which, on human 15-PGDH, the IC50 was not above 100 nM. For the same compound, the fold induction at 1 µM in the test with A549 cells is less than 1.5.

Turning to `O=C(c1cnn2c(-c3cnc(-c4n[nH]c(=O)o4)c(F)c3)cccc12)N1CCCCC1` [Example 373, 5-[3-fluoro-5-[3-(piperidine-1-carbonyl)pyrazolo[1,5-a]pyridin-7-yl]-2-pyridyl]-3H-1,3,4-oxadiazol-2-one], the IC50 on human 15-PGDH is not above 100 nM. Moreover, the fold induction at 1 µM in the test with A549 cells is more than 1.5.

`CN1CC(NC(=O)c2cncc(-c3cccc4c(C(=O)N5CCCCC5)cnn34)c2)C1` [Example 202, N-(1-methylazetidin-3-yl)-5-[3-(piperidine-1-carbonyl)pyrazolo[1,5-a]pyridin-7-yl]pyridine-3-carboxamide] gave an IC50 against human 15-PGDH not above 100 nM. In addition, in the test with A549 cells, the fold induction at 1 µM is more than 1.5.

Consider `Cc1noc(C)c1-c1ncc(-c2cccc3c(C(=O)N4CCCCC4)cnn23)cn1` [Example 399, [7-[2-(3,5-dimethylisoxazol-4-yl)pyrimidin-5-yl]pyrazolo[1,5-a]pyridin-3-yl]-(1-piperidyl)methanone], for which the 50% inhibitory concentration (IC50) on human 15-PGDH was not above 100 nM. The fold induction at 1 µM with A549 cells is more than 1.5.

Consider `O=C(c1cnn2c(-c3ccccc3)cccc12)N1CC2CCC1C2` (stereo not drawn) [Example 227, (2-azabicyclo[2.2.1]heptan-2-yl)(7-phenylpyrazolo[1,5-a]pyridin-3-yl)methanone], for which the IC50 against human 15-PGDH was not above 100 nM. In addition, in the test on A549 cells, the fold induction at 1 µM is more than 1.5.

Turning to `COCCC(=O)Nc1cccc(-c2cccc3c(C(=O)N4CCCCC4)cnn23)c1` [Example 91, 3-methoxy-N-(3-(3-(piperidine-1-carbonyl)pyrazolo[1,5-a]pyridin-7-yl)phenyl)propanamide], the IC50 against human 15-PGDH was not above 100 nM. Besides, the fold induction at 1 µM in the test with A549 cells is more than 1.5.

Source of the values: patent publication EP4653437A2 (Innovo Therapeutics Inc., priority 2023, dated 2024).
